From US20140360727A1, “REMEDIATION OF ASPHALTENE-INDUCED PLUGGING OF AN OIL-BEARING FORMATION” (SHELL OIL COMPANY, priority 2013, published 2014)
Where two headings read alike, the source gives them in different places.

Columns and labels:
Assay type in all cases: physicochemical
[1] = SARA analysis of bitumen samples extracted from oil sands by each solvent
Method: The bitumen samples extracted at 30° C. from each oil sands sample were evaluated by SARA analysis to determine the saturates, aromatics, resins, and asphaltenes composition of the bitumen samples extracted by each solvent.

[2] = Extraction of mined oil sands with solvents (cyclic contact and drain); details: 10 C and 30 C; FIGS. 4 and 5 and Table 1
Method: Each oil sands sample was weighed and placed in a cellulose extraction thimble that was placed on a porous polyethylene support disk in a jacketed glass cylinder with a drip rate control valve. Each oil sands sample was then extracted with a selected solvent at a selected temperature (10° C. or 30° C.) in a cyclic contact and drain experiment, where the contact time ranged from 15 to 60 minutes. Fresh contacting solvent was applied and the cyclic extraction repeated until the fluid drained from the apparatus became pale brown in color.
The extracted fluids were stripped of solvent using a rotary evaporator and thereafter vacuum dried to remove residual solvent. […] The residual solids and extraction thimble were air dried, weighed, and then vacuum dried.

[3] = Time required to entirely dissolve naturally occurring tar mat material; details: DMS versus A150, both experiments
Method: Two experiments were conducted on a naturally occurring tar mat material recovered from an oil-bearing formation to compare the rate of dissolution of the tar mat material using dimethyl sulfide and A150, a commercially available solvent comprised of a mixture of aromatic hydrocarbons that is commonly used to dissolve tar mats. A naturally occurring tar mat material recovered from an oil-bearing formation at a depth of 4690 meters and at a formation temperature of 50° C. was utilized as the tar mat material for the comparison.
In the first experiment, two samples of DMS solvent and two samples of A150 solvent were individually mixed with the tar mat material at ambient temperature and pressure, where the volume (ml) to weight (g) ratio of each solvent sample to the tar mat material was approximately 100:1. The length of time required to entirely dissolve the tar mat material was measured and recorded.
In the second experiment, four samples of DMS solvent and four samples of A150 solvent were individually mixed with the tar mat material at ambient temperature and pressure, where the volume (ml) to weight (g) ratio of each solvent sample to the tar mat material was approximately 10:1. The length of time required to entirely dissolve the tar mat material was measured and recorded.

SMILES	Aromatics, oil composition of extracted bitumen ([1]; bitumen extracted at 30 C)	Asphaltenes, oil composition of extracted bitumen ([1]; bitumen extracted at 30 C)	Resins, oil composition of extracted bitumen ([1]; bitumen extracted at 30 C)	Saturates, oil composition of extracted bitumen ([1]; bitumen extracted at 30 C)	Aromatics, oil composition of extracted bitumen [1]	Asphaltenes, oil composition of extracted bitumen [1]	Resins, oil composition of extracted bitumen [1]	Recovery of bitumen from oil sand material versus best known fluids [2]	Effectiveness for extraction of asphaltenes from oil sands (SARA) ([1]; bitumen extracted at 30 C)	Rate of tar mat dissolution relative to A150 [3]
S=C=S [Carbon Disulfide, carbon disulfide]	41.89 Normalized Weight Percent	13.85 Normalized Weight Percent	25.49 Normalized Weight Percent	18.77 Normalized Weight Percent	–	–	–	–	–	–
ClC(Cl)Cl [Chloroform, chloroform]	–	–	–	15.64 Normalized Weight Percent	43.56 Normalized Weight Percent	14.86 Normalized Weight Percent	25.94 Normalized Weight Percent	–	–	–
CSC [Dimethyl Sulfide, dimethyl sulfide]	47.07 Normalized Weight Percent	13.19 Normalized Weight Percent	24.25 Normalized Weight Percent	15.49 Normalized Weight Percent	–	–	–	comparable	excellent miscibility properties	not less than 1.4 times
C1CCOC1 [Tetrahydrofuran, tetrahydrofuran]	45.24 Normalized Weight Percent	14.27 Normalized Weight Percent	24.38 Normalized Weight Percent	16.11 Normalized Weight Percent	–	–	–	–	–	–
Cc1ccccc1C [o-Xylene, o-xylene]	46.39 Normalized Weight Percent	13.96 Normalized Weight Percent	22.28 Normalized Weight Percent	17.37 Normalized Weight Percent	–	–	–	–	–	–
